According to ChEMBL document CHEMBL4368888, “Design, synthesis and biological evaluation of tryptamine salicylic acid derivatives as potential antitumor agents” (Medchemcomm, 2019):

Assays:
Type in all cases: functional, cell-based
A549 = test: Antiproliferative activity against human A549 cells after 48 hrs by MTT assay; details: A549, 48 h
HeLa = test: Antiproliferative activity against human HeLa cells after 48 hrs by MTT assay
MCF7 = test: Antiproliferative activity against human MCF7 cells after 48 hrs by MTT assay; details: MCF7, 48 h
MGC-803 = test: Antiproliferative activity against human MGC803 cells after 48 hrs by MTT assay; details: MGC-803, 48 h
HepG2 = test: Antiproliferative activity against human HepG2 cells after 48 hrs by MTT assay; details: HepG2, 48 h

| SMILES | IC50 (A549) | IC50 (HeLa) | IC50 (MCF7) | IC50 (MGC-803) | IC50 (HepG2) |
| --- | --- | --- | --- | --- | --- |
| COc1ccc2[nH]cc(CCNC(=O)c3ccc(C)cc3O)c2c1 | > 100 µM | 80 µM | > 100 µM | 59 µM | 80 µM |
| Cc1ccc2[nH]cc(CCNC(=O)c3cc(Cl)ccc3O)c2c1 | 89 µM | > 100 µM | 79 µM | 42 µM | > 100 µM |
| Cc1ccc(C(=O)NCCc2c[nH]c3ccc(F)cc23)c(O)c1 | > 100 µM | > 100 µM | > 100 µM | 60 µM | > 100 µM |
| Cc1ccc2[nH]cc(CCNC(=O)c3cc(Br)ccc3O)c2c1 | 80 µM | > 100 µM | 89 µM | 61 µM | 93 µM |
| Cc1ccc(C(=O)NCCc2c[nH]c3ccc(Br)cc23)c(O)c1 | 61 µM | 61 µM | 80 µM | 48 µM | 80 µM |
| O=C(NCCc1c[nH]c2ccc(F)cc12)c1cc(Cl)ccc1O | 53 µM | > 100 µM | > 100 µM | 53 µM | > 100 µM |
| O=C(NCCc1c[nH]c2ccccc12)c1cc(Cl)ccc1O | > 100 µM | > 100 µM | > 100 µM | 74 µM | > 100 µM |
| Cc1ccc2[nH]cc(CCNC(=O)c3cccc(C)c3O)c2c1 | 50 µM | 61 µM | 62 µM | 38 µM | 64 µM |
| O=C(NCCc1c[nH]c2ccc(Br)cc12)c1cc(Br)ccc1O | 62 µM | > 100 µM | > 100 µM | 80 µM | > 100 µM |
| O=C(NCCc1c[nH]c2ccc(Cl)cc12)c1ccc(Cl)cc1O | 46 µM | 64 µM | 69 µM | 34 µM | 90 µM |
| Cc1cccc(C(=O)NCCc2c[nH]c3ccc(Cl)cc23)c1O | 48 µM | 56 µM | 70 µM | 56 µM | 62 µM |
| Cc1cccc(C(=O)NCCc2c[nH]c3ccc(F)cc23)c1O | 67 µM | > 100 µM | > 100 µM | 52 µM | > 100 µM |
| COc1ccc2[nH]cc(CCNC(=O)c3cc(Br)ccc3O)c2c1 | > 100 µM | 74 µM | > 100 µM | 62 µM | > 100 µM |
| COc1ccc2[nH]cc(CCNC(=O)c3cccc(C)c3O)c2c1 | > 100 µM | 42 µM | 97 µM | 43 µM | 85 µM |
| O=C(NCCc1c[nH]c2ccccc12)c1ccccc1O | > 100 µM | > 100 µM | > 100 µM | > 100 µM | > 100 µM |
| Cc1ccc2[nH]cc(CCNC(=O)c3ccccc3O)c2c1 | > 100 µM | > 100 µM | 93 µM | 45 µM | > 100 µM |
| O=C(NCCc1c[nH]c2ccc(F)cc12)c1cc(Br)ccc1O | 77 µM | 76 µM | > 100 µM | 80 µM | > 100 µM |
| COc1ccc2[nH]cc(CCNC(=O)c3ccc(Cl)cc3O)c2c1 | > 100 µM | 71 µM | > 100 µM | 56 µM | > 100 µM |

| SMILES | IC50 (A549) | IC50 (HeLa) | IC50 (MCF7) | IC50 (MGC-803) | IC50 (HepG2) |
| --- | --- | --- | --- | --- | --- |
| Cc1ccc(C(=O)NCCc2c[nH]c3ccc(C)cc23)c(O)c1 | 75 µM | > 100 µM | 60 µM | 38 µM | > 100 µM |
| O=C(NCCc1c[nH]c2ccccc12)c1cc(Br)ccc1O | > 100 µM | > 100 µM | > 100 µM | 78 µM | > 100 µM |
| COc1ccc2[nH]cc(CCNC(=O)c3cc(Cl)ccc3O)c2c1 | > 100 µM | > 100 µM | > 100 µM | 55 µM | 75 µM |
| Cc1ccc(C(=O)NCCc2c[nH]c3ccccc23)c(O)c1 | > 100 µM | > 100 µM | > 100 µM | 80 µM | > 100 µM |
| O=C(NCCc1c[nH]c2ccc(F)cc12)c1ccccc1O | > 100 µM | > 100 µM | > 100 µM | 63 µM | > 100 µM |
| O=C(NCCc1c[nH]c2ccc(Br)cc12)c1ccccc1O | 59 µM | 79 µM | 80 µM | 37 µM | > 100 µM |
| O=C(NCCc1c[nH]c2ccccc12)c1ccc(Cl)cc1O | > 100 µM | > 100 µM | > 100 µM | 80 µM | > 100 µM |
| O=C(NCCc1c[nH]c2ccc(Cl)cc12)c1cc(Cl)ccc1O | 62 µM | 80 µM | 80 µM | 31 µM | 89 µM |
| Cc1ccc(C(=O)NCCc2c[nH]c3ccc(Cl)cc23)c(O)c1 | 63 µM | 64 µM | 73 µM | 37 µM | > 100 µM |
| Cc1cccc(C(=O)NCCc2c[nH]c3ccccc23)c1O | > 100 µM | 82 µM | > 100 µM | 63 µM | > 100 µM |
| O=c1[nH]cc(F)c(=O)[nH]1 [FLUOROURACIL] | > 100 µM | 50 µM |  | 58 µM | 68 µM |
| O=C(NCCc1c[nH]c2ccc(Cl)cc12)c1ccccc1O | 60 µM | 81 µM | 75 µM | 35 µM | > 100 µM |
| O=C(NCCc1c[nH]c2ccc(Cl)cc12)c1cc(Br)ccc1O | 63 µM | 85 µM | 75 µM | 35 µM | > 100 µM |
| O=C(NCCc1c[nH]c2ccc(F)cc12)c1ccc(Cl)cc1O | > 100 µM | > 100 µM | > 100 µM | 62 µM | > 100 µM |
| COc1ccc2[nH]cc(CCNC(=O)c3ccccc3O)c2c1 | > 100 µM | 82 µM | > 100 µM | 59 µM | > 100 µM |
| O=C(NCCc1c[nH]c2ccc(Br)cc12)c1cc(Cl)ccc1O | 63 µM | 80 µM | 73 µM | 63 µM | 87 µM |
| O=C(NCCc1c[nH]c2ccc(Br)cc12)c1ccc(Cl)cc1O | 63 µM | 71 µM | 98 µM | 43 µM | 92 µM |
| Cc1ccc2[nH]cc(CCNC(=O)c3ccc(Cl)cc3O)c2c1 | 68 µM | 93 µM | > 100 µM | 47 µM | 98 µM |
